IC50 data for 23 molecules are collected here from US12521395B2, “Gem-disubstituted heterocyclic compounds and their use as IDH inhibitors” (NERVIANO MEDICAL SCIENCES S.R.L., priority 2019, dated 2026).

pIC50: −log10 of the molar value.

For this experiment, the target named is IDH1^R132C (Homo sapiens, UniProt O75874, R132C). The experiment in a line: NADPH depletion assay (diaphorase/resazurin), IDH1 R132C. Type of experiment: biochemical. The settings on record: IDH1^R132C 2 nM, alpha-ketoglutarate 0.14 mM; read-out: IDH1^R132C IC50. On the procedure: IDH mutated enzyme activity converting alpha-ketoglutarate to 2-hydroxyglutaric acid is measured using a NADPH depletion assay. In the assay the remaining cofactor is measured at the end of the reaction with the addition of a catalytic excess of diaphorase and resazurin, to generate a fluorescent signal in proportion to the amount of NADPH remaining. IDH1 WT enzyme as well as mutated isoforms IDH1^R132H, IDH1^R132C, and IDH2^R172K enzymes are commercially available proteins (see e.g. Sino Biological, Abcam, Active Motif or Creative BioMart).
Chain of IDH1^R132C (O75874 whole entry R132C, canonical isoform): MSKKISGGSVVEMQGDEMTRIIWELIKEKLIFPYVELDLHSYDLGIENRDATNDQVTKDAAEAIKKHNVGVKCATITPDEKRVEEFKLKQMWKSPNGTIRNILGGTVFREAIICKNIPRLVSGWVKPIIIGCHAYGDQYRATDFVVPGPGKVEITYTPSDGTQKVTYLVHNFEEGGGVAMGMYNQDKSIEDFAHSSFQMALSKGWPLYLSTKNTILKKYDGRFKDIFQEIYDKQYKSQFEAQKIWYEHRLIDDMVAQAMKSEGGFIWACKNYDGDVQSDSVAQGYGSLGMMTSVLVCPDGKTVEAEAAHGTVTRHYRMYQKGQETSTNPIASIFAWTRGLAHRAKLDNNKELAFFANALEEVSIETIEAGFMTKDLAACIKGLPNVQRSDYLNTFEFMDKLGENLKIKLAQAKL
IDH1^R132H homodimer enzyme are diluted to 8 nM, in 10 μL of Assay Buffer (150 mM NaCl, 50 mM Tris-HCl pH 7.6, 10 mM MgCl2, 0.001% Triton X-100, 4 mM β-mercaptoethanol); 0.2 μL of test compound, previously serially diluted 1 to 3, >10 experimental points from 1 mM in DMSO, is added and the mixture is incubated for 15 minutes at room temperature. The reaction is started with the addition of 10 μL of Substrate Mix (12 μM NADPH, 3.4 mM alpha-ketoglutarate in Assay Buffer) and the mixture is incubated for 60 minutes at room temperature. The reaction is terminated with the addition of 5 μl of Detection Buffer (100 μg/mL diaphorase, 30 μM resazurin, in IX Assay Buffer), and is incubated for 15 minutes before reading on a ViewLux as platereader at Ex544/Em590.
Compounds are assayed for their activity against IDH1^R132C following the same assay as above with the following modifications: IDH1^R132C and alpha-ketoglutarate final concentrations in the Assay Buffer is 2 nM and 0.14 mM, respectively.

On to `CC#CC(=O)N1CCN(C2(c3ccc([C@H](C)Nc4ncc5ccc(=O)n(C(C)C)c5n4)cc3)CCOCC2)CC1` [cpd 5, 2-{[(1S)-1-(4-{4-[4-(but-2-ynoyl)piperazin-1-yl]tetrahydro-2H-pyran-4-yl}phenyl)ethyl]amino}-8-(propan-2-yl)pyrido[2,3-d]pyrimidin-7(8H)-one], for which the pIC50 was 5.83. The same measure for `C=CC(=O)N1CCN(C2(c3ccc([C@H](C)Nc4nc(C)c5ccc(=O)n(C(C)C)c5n4)cc3)CCOCC2)CC1` [cpd 13, 2-{[(1S)-1-{4-[4-(4-acryloylpiperazin-1-yl)tetrahydro-2H-pyran-4-yl]phenyl}ethyl]amino}-4-methyl-8-(propan-2-yl) pyrido[2,3-d]pyrimidin-7(8H)-one]: 7.27; for `C=CC(=O)N1CCN(C2(c3ccc([C@H](C)Nc4ncc5c(C)cc(=O)n(C(C)C)c5n4)cc3)CCOCC2)CC1` [cpd 18, 2-{[(1S)-1-{4-[4-(4-acryloylpiperazin-1-yl)tetrahydro-2H-pyran-4-yl]phenyl}ethyl]amino}-5-methyl-8-(propan-2-yl) pyrido[2,3-d]pyrimidin-7(8H)-one]: 7.62; for `C=C(C)C(=O)N1CCN(C2(c3ccc([C@H](C)Nc4ncc5ccc(=O)n(C(C)C)c5n4)cc3)CCOCC2)CC1` [cpd 21, 2-{[(1S)-1-(4-{4-[4-(2-methylacryloyl)piperazin-1-yl]tetrahydro-2H-pyran-4-yl}phenyl)ethyl]amino}-8-(propan-2-yl) pyrido[2,3-d]pyrimidin-7(8H)-one]: 6.04.

Take `C=CC(=O)N1CCN(C2(c3ccc([C@H](C)Nc4ncc5ccc(=O)n(C(C)C)c5n4)nc3)CCOCC2)CC1` [cpd 27, 2-{[(1S)-1-{5-[4-(4-acryloylpiperazin-1-yl)tetrahydro-2H-pyran-4-yl]pyridin-2-yl}ethyl]amino}-8-(propan-2-yl)pyrido[2,3-d]pyrimidin-7(8H)-one]: the negative logarithm of the IC50 (pIC50) is 7.01. Consider `C=CC(=O)N1CCN(C2(c3ccc(CNc4ncc5ccc(=O)n(C(C)C)c5n4)cc3)CCOCC2)CC1` [cpd 31, 2-({4-[4-(4-acryloylpiperazin-1-yl)tetrahydro-2H-pyran-4-yl]benzyl}amino)-8-(propan-2-yl)pyrido[2,3-d]pyrimidin-7(8H)-one], for which the pIC50 is 6.48. The same measure for `C=CC(=O)N1CCN(C2(c3ccc([C@H](C)Nc4ncc5ccc(=O)n(C(C)C)c5n4)cc3)CCN(C)CC2)CC1` [cpd 32, 2-{[(1S)-1-{4-[4-(4-acryloylpiperazin-1-yl)-1-methylpiperidin-4-yl]phenyl}ethyl]amino}-8-(propan-2-yl)pyrido[2,3-d]pyrimidin-7(8H)-one]: 7.19; for `C=CC(=O)N1CCN(C2(c3ccc([C@H](C)Nc4ncc5ccc(=O)n(C(CC)CC)c5n4)cc3)CCOCC2)CC1` [cpd 35, 2-{[(1S)-1-{4-[4-(4-acryloylpiperazin-1-yl)tetrahydro-2H-pyran-4-yl]phenyl}ethyl]amino}-8-(pentan-3-yl)pyrido[2,3-d]pyrimidin-7(8H)-one]: 8.40; for `C=CC(=O)N1CCN(C2(c3ccc([C@H](C)Nc4nc(N(C)C)c5ccc(=O)n(C(C)C)c5n4)cc3)CCOCC2)CC1` [cpd 36, 2-{[(1S)-1-{4-[4-(4-acryloylpiperazin-1-yl)tetrahydro-2H-pyran-4-yl]phenyl}ethyl]amino}-4-(dimethylamino)-8-(propan-2-yl)pyrido[2,3-d]pyrimidin-7(8H)-one]: 6.01. As to `C=CC(=O)N1CCN(C2(c3ccc([C@H](C)Nc4nc(NC)c5ccc(=O)n(C(C)C)c5n4)cc3)CCOCC2)CC1` [cpd 37, 2-{[(1S)-1-{4-[4-(4-acryloylpiperazin-1-yl)tetrahydro-2H-pyran-4-yl]phenyl}ethyl]amino}-4-(methylamino)-8-(propan-2-yl)pyrido[2,3-d]pyrimidin-7(8H)-one], the negative-log IC50 (pIC50) was 6.00. The value for `CCN1CCN(C2(c3ccc([C@H](C)Nc4ncc5c(n4)N(CC)C(=O)OC5)cc3)CCOCC2)CC1` [cpd 45, 7-{[(1S)-1-{4-[4-(4-ethylpiperazin-1-yl)tetrahydro-2H-pyran-4-yl]phenyl}ethyl]amino}-1-ethyl-1,4-dihydro-2H-pyrimido[4,5-d][1,3]oxazin-2-one] was 5.98; that for `C=CC(=O)N1CCN(C(C)(CC)c2ccc([C@H](C)Nc3ncc4ccc(=O)n(C(C)C)c4n3)cc2)CC1` (stereo partly drawn) [cpd 46, 2-{[(1S)-1-{4-[2-(4-acryloylpiperazin-1-yl)butan-2-yl]phenyl}ethyl]amino}-8-(propan-2-yl)pyrido[2,3-d]pyrimidin-7(8H)-one] was 7.89. The value for `C=C(F)C(=O)N1CCN(C2(c3ccc([C@H](C)Nc4ncc5ccc(=O)n(C(C)C)c5n4)cc3)CCOCC2)CC1` [cpd 54, 2-{[(1S)-1-(4-{4-[4-(2-fluoroacryloyl)piperazin-1-yl]tetrahydro-2H-pyran-4-yl}phenyl)ethyl]amino}-8-(propan-2-yl) pyrido[2,3-d]pyrimidin-7(8H)-one] was 6.03; that for `[2H]C([2H])([2H])C([2H])(n1c(=O)ccc2cnc(N[C@@H](C)c3ccc(C4(N5CCN(C(=O)C=C)CC5)CCOCC4)cc3)nc21)C([2H])([2H])[2H]` [cpd 55, 2-{[(1S)-1-{4-[4-(4-acryloylpiperazin-1-yl)tetrahydro-2H-pyran-4-yl]phenyl}ethyl]amino}-8-[(^2H7)propan-2-yl]pyrido[2,3-d]pyrimidin-7(8H)-one] was 7.96; that for `C=CC(=O)NCC(=O)NC1(c2ccc([C@H](C)Nc3ncc4ccc(=O)n(C(C)C)c4n3)cc2)CCC(F)(F)CC1` [cpd 56, N-{2-[(4,4-difluoro-1-{4-[(1S)-1-{[7-oxo-8-(propan-2-yl)-7,8-dihydropyrido[2,3-d]pyrimidin-2-yl]amino}ethyl]phenyl}cyclohexyl)amino]-2-oxoethyl}prop-2-enamide] was 6.49. The same measure for `C=CC(=O)N[C@H](C)C(=O)NC1(c2ccc([C@H](C)Nc3ncc4ccc(=O)n(C(C)C)c4n3)cc2)CCC(F)(F)CC1` [cpd 57, N2-acryloyl-N-(4,4-difluoro-1-{4-[(1S)-1-{[7-oxo-8-(propan-2-yl)-7,8-dihydropyrido[2,3-d]pyrimidin-2-yl]amino}ethyl]phenyl}cyclohexyl)-D-alaninamide]: 6.27. In the case of `C=CC(=O)N[C@@H](C)C(=O)NC1(c2ccc([C@H](C)Nc3ncc4ccc(=O)n(C(C)C)c4n3)cc2)CCC(F)(F)CC1` [cpd 58, N2-acryloyl-N-(4,4-difluoro-1-{4-[(1S)-1-{[7-oxo-8-(propan-2-yl)-7,8-dihydropyrido[2,3-d]pyrimidin-2-yl]amino}ethyl]phenyl}cyclohexyl)-L-alaninamide], the pIC50 was 6.45. The value for `C=CC(=O)NCCNC1(c2ccc([C@H](C)Nc3ncc4ccc(=O)n(C(C)C)c4n3)cc2)CCOCC1` [cpd 59, N-{2-[(4-{4-[(1S)-1-{[7-oxo-8-(propan-2-yl)-7,8-dihydropyrido[2,3-d]pyrimidin-2-yl]amino}ethyl]phenyl}tetrahydro-2H-pyran-4-yl)amino]ethyl}prop-2-enamide] was 6.82; that for `CC(C)n1c(=O)ccc2cnc(N[C@@H](C)c3ccc(C4(N5CCN(C(=O)C(O)CO)CC5)CCC(F)(F)CC4)cc3)cc21` (stereo partly drawn) [cpd 60, 7-{[(1S)-1-(4-{1-[4-(2,3-dihydroxypropanoyl)piperazin-1-yl]-4,4-difluorocyclohexyl}phenyl)ethyl]amino}-1-(propan-2-yl)-1,6-naphthyridin-2(1H)-one] was 7.15; that for `C=CC(=O)N1CC(N(C)C2(c3ccc([C@H](C)Nc4cc5c(ccc(=O)n5C(C)C)cn4)cc3)CCC(F)(F)CC2)C1` [cpd 61, 7-{[(1S)-1-(4-{1-[(1-acryloylazetidin-3-yl)(methyl)amino]-4,4-difluorocyclohexyl}phenyl)ethyl]amino}-1-(propan-2-yl)-1,6-naphthyridin-2(1H)-one] was 8.22.

Turning to `C=CC(=O)N1CC(N(C(C)=O)C2(c3ccc([C@H](C)Nc4cc5c(ccc(=O)n5C(C)C)cn4)cc3)CCC(F)(F)CC2)C1` [cpd 62, N-(1-acryloylazetidin-3-yl)-N-(4,4-difluoro-1-{4-[(1S)-1-{[2-oxo-1-(propan-2-yl)-1,2-dihydro-1,6-naphthyridin-7-yl]amino}ethyl]phenyl}cyclohexyl)acetamide], the negative-log IC50 (pIC50) is 8.70. The same measure for `C=CC(=O)N1CCN(C2(c3ccc([C@@H](C)Nc4cc5c(ccc(=O)n5C(C)C)cn4)cc3)CCC(F)(F)CC2)CC1` [cpd 63, 7-{[(1R)-1-{4-[1-(4-acryloylpiperazin-1-yl)-4,4-difluorocyclohexyl]phenyl}ethyl]amino}-1-(propan-2-yl)-1,6-naphthyridin-2(1H)-one]: 7.26; for `CC(C)n1c(=O)ccc2cnc(N[C@@H](C)c3ccc(C4(N5CCN(C#N)CC5)CCOCC4)cc3)nc21` [cpd 65, 4-(4-{4-[(1S)-1-{[7-oxo-8-(propan-2-yl)-7,8-dihydropyrido[2,3-d]pyrimidin-2-yl]amino}ethyl]phenyl}tetrahydro-2H-pyran-4-yl)piperazine-1-carbonitrile]: 6.52.
